Results taken from patent EP0170258A2, “11-Substituted-16-phenoxy and 16-substituted phenoxy-prostatrienoic acid derivatives” (priority 1984, dated 1986).

Tests used:
[1] = test system: Normal White Albino New Zealand Rabbits; assay: Reduction of intraocular pressure (IOP), pneuma-tonometer; type: in vivo
Experimental: Two groups of normal albino white New Zealand rabbits were used for this study. Control group: 4 animals Experimental group: 8 animals At time 0, intraocular pressure of both eyes of each animal in control and experimental groups was determined. All animals received the treatment either with saline (control group) or the tested compound (experimental group) immediately after 0 hour intraocular pressure reading. Control group received 50 µl of vehicle in both eyes . Experimental animals received 50 µl of vehicle in the left eyes and 50 µl of the test solution in the right eyes. Intraocular pressure was measured at 30 minutes, 1, 2, and 4 hours. The effects of tested drug on intraocular pressure of the rabbit was determined using a Digilab Model 30D pneuma-tonometer. Initial IOP readings were obtained in all animals after the administration of 50 ul of 0.5% Opthaine (proparacaine hydrochloride). A group of 4 rabbits served as controls and were treated with 50 µl of saline in both eyes. Eight additional rabbits received 50 ul of test drug in the right eye, and 50 µl of drug vehicle was administered in the contralateral left eye. IOP readings were made 30 minutes, 1 hours, 2 hours, and 4 hours after drug administration. […] This procedure permitted the comparison of drug treated eye with the contralateral vehicle treated eye, and also with saline treated eye. For purposes of statistical analysis comparisons were made between the drug treated IOP values and vehicle treated-contralateral eyes and also the saline treated IOP values.

[2] = test system: rabbits; assay: Toxicity by topical ocular application in rabbits; type: in vivo; details: up to 0.2 mg/ml, 0.1 ml/eye, from 12 times in 6 hours to up to 6 times/day for a week
Experimental: Studies were conducted by topical ocular application in rabbits with concentrations up to 0.2 mg/ml of methyl 9-oxo-lla-methyl-15a-hydroxy-16-phenoxy-17,18,19,20-tetranorprosta-4,5,13(E)-trienoate. The dose volume was 0.1 ml/eye. Duration of administration varied from 12 times in 6 hours to up to 6 times/day for a week.

[3] = test system: Monkeys; assay: Toxicity by topical ocular application in monkeys; type: in vivo; details: same concentrations and dosages, once a day for one week
Experimental: Monkeys were treated similarly with the same concentrations and dosages of methyl 9-oxo-lla- methyl-15a-hydroxy-16-phenoxy-17,18,19,20-tetranorprosta-4,5,13(E)-trienoate once a day for one week.

[4] = test system: Normal White Albino New Zealand Rabbits; assay: Reduction of intraocular pressure (IOP), pneuma-tonometer; details: rabbit, in vivo

COC(=O)CCC=C=CC[C@H]1C(=O)C[C@@H](C)[C@@H]1/C=C/[C@@H](O)COc1ccccc1 [Compound 1, methyl 9-oxo-11α-methyl-15α-hydroxy-16-phenoxy-17,18,19,20-tetranorprosta-4,5,13(E)-trienoate]
intraocular pressure (effect in words) ([1]; 0.01% solution, right (treated) eyes of the experimental group): decreased significantly | Intraocular pressure ([1]; Compound 1 0.02%, 0 hr (reading before treatment)): 21.63 ± .71 mmHg | Intraocular pressure ([1]; Compound 1 0.02%, 1/2 hr): 18.13 ± .44 mmHg | Intraocular pressure ([1]; Compound 1 0.02%, 1 hr): 17.25 ± .59 mmHg | Intraocular pressure ([1]; Compound 1 0.02%, 2 hr): 16.63 ± .78 mmHg | Intraocular pressure ([1]; Compound 1 0.02%, 4 hr): 18.75 ± .68 mmHg | Intraocular pressure ([1]; Compound 1 0.2%, 0 hr (reading before treatment)): 23.75 ± .53 mmHg | Intraocular pressure ([1]; Compound 1 0.2%, 1/2 hr): 19.25 ± .49 mmHg | Intraocular pressure ([1]; Compound 1 0.2%, 1 hr): 18.88 ± .64 mmHg | Intraocular pressure ([1]; Compound 1 0.2%, 2 hr): 18.75 ± .45 mmHg | Intraocular pressure ([1]; Compound 1 0.2%, 4 hr): 19.88 ± .35 mmHg | ocular toxicity [2]: No ocular toxicity occurred | ocular toxicity [3]: No ocular toxicity occurred

CCCCC[C@H](O)/C=C/[C@H]1[C@H](O)CC(=O)[C@@H]1C/C=C\CCCC(=O)O [PGE2]
Intraocular pressure ([1]; PGE2 0.025%, 0 hr (reading before treatment)): 21.00 ± .85 mmHg | Intraocular pressure ([1]; PGE2 0.025%, 1/2 hr): 47.63 ± 1.28 mmHg | Intraocular pressure ([1]; PGE2 0.025%, 2.5 hr): 18.38 ± .82 mmHg | Intraocular pressure ([1]; PGE2 0.025%, 4 hr): 16.00 ± .73 mmHg | Intraocular pressure ([1]; PGE2 0.025%, 5 hr): 16.63 ± .38 mmHg | eye irritation ([1]; observed on administration, for PGE1 and PGE2 even at low doses): severe eye irritation | transient increase in intraocular pressure at the time of administration ([1]; when first administered): transitory rise in intraocular pressure

CCCCC[C@H](O)/C=C/[C@H]1[C@H](O)CC(=O)[C@@H]1CCCCCCC(=O)O [PGE1]
Intraocular pressure ([1]; PGE1 0.01%, 0 hr (reading before treatment)): 20.67 ± 1.09 mmHg | Intraocular pressure ([1]; PGE1 0.01%, 1/2 hr): 38.17 ± 1.28 mmHg | Intraocular pressure ([1]; PGE1 0.01%, 1 hr): 31.17 ± .91 mmHg | Intraocular pressure ([1]; PGE1 0.01%, 2 hr): 15.33 ± .56 mmHg | Intraocular pressure ([1]; PGE1 0.01%, 4 hr): 16.33 ± 1.17 mmHg | Intraocular pressure ([1]; PGE1 0.01%, 6 hr): 19.00 ± 1.03 mmHg | transient increase in intraocular pressure at the time of administration ([1]; rabbit, in vivo): transitory rise in intraocular pressure | eye irritation [4]: severe eye irritation
